Data published in patent US5328838A, “Method for identifying and/or isolating genes which code for membrane receptors” (Enichem Partecipazioni S.p.A., priority 1990, dated 1994).

System: human β2-adrenergic receptor, β-galactosidase fusion protein expressed from λβ2 (λgt11) in E. coli Y1089
Settings: 20 pM ICYP; non-radiolabeled agonists at 10^-8, 10^-8 and 10^-4 M; FIG. 3
Description: In order to further characterize the specificity of the test by replication on filters, 3 β-adrenergic agonists were tested on [λβ2] cells in bond-competition tests.
The bacterial cells were seeded on slabs of LB-agar of 10 cm of diameter and were grown for 12 hours at 30° C. Circular nitrocellulose filters (of 8.5 cm of diameter), previously drenched in 10 mM IPTG in the case of the expression of [λgt11], [λβ1] and [λβ2] lysogens were then laid above the bacterial colonies; the expression of proteins was induced for 2 hours, at 30° C. for the lysogenic colonies, and at 42° C. for the colonies transformed with pUEX1 and pUEXβ2, before the removal of the filters. The subsequent treatments were carried out at room temperature, with constant rocking. The replications on filter of the bacterial colonies were first incubated for 60 minutes in 10 ml of bond-establishing buffer (90 mM NaCl, 10 mM Tris-HCl pH 7.5) containing 20 mg/ml of bovine serumalbumin, and were then transferred for 90 minutes in 10 ml of bond-establishing buffer containing 20 mg/ml of bovine serumalbumin and 20 pM ICYP (2000 Ci/mmol, Amersham, U.K.). […]

Compound	order of power of competition for the bond of ICYP
NC[C@H](O)c1ccc(O)c(O)c1 [norepinephrine, (-)-norepinephrine]	isoprotenerol>epinephrine>norepinephrine
CNC[C@H](O)c1ccc(O)c(O)c1 [epinephrine, (-)-epinephrine]	isoprotenerol>epinephrine>norepinephrine
